This passage reports XC50 results from ChEMBL document CHEMBL1157539, “Thousands of chemical starting points for antimalarial lead identification” (Nature, 2010).

For this assay, the system named is Plasmodium falciparum. Description: GSK_TCMDC: Inhibition of Plasmodium falciparum 3D7 in whole erythrocytes, using parasite LDH activity as an index of growth. The class given is functional, organism-based. The conditions noted are these: Plasmodium falciparum, 3D7.
As for `CCN1CCC(N(Cc2ccc(-c3ccc(C(F)(F)F)cc3)o2)C(=O)Cn2c(CCc3cccc(F)c3F)nc(=O)c3ccccc32)CC1`, the XC50 came to 1140 nM.
For `CCN(CC)CCN(Cc1ccc(-c2ccc(C(F)(F)F)cc2)cc1)C(=O)Cn1c(CCc2cc(F)cc(F)c2)nc(=O)c2ccccc21`, the XC50 was 983 nM.
Compound `O=C(Cn1c(CCc2cccc(F)c2F)cc(=O)c2ccccc21)N(CCN1CCCC1)Cc1ccc(-c2ccc(C(F)(F)F)cc2)cc1` came in with an XC50 of 859 nM.
Under `Cc1ccc(Oc2ccc(NC(=O)CNc3ccccc3N3CCCC3=O)cc2)cc1` stands 366 nM.
Next, `COCCCNc1sc(S(=O)(=O)c2ccccc2)nc1S(=O)(=O)c1ccc(Cl)cc1`: 877 nM; `OC1=C2C(=Nc3ccccc3SC2c2ccccc2)c2ccccc21` (stereo not given): 325 nM.
Regarding `NC1=NC(c2ccccc2)N(c2ccc(Cl)c(Cl)c2)C(N)=N1` (stereo not given), the XC50 was 14.6 nM.
The compound `CN1CCCC(CN2CCN(Cc3cccc(-c4ccc(-c5nc6ccccc6[nH]5)cc4)c3)CC2)C1` (stereo not given) returned an XC50 of 157 nM.
Consider `CCOC(=O)c1ccc(NC(=O)Nc2ccc(-c3ccc(-c4nc5ccccc5[nH]4)cc3)cc2)cc1`, for which the XC50 was 22.3 nM.
Next, `COc1ccccc1CCNc1nc(C)cc(N[C@@H](CC(C)C)C(=O)NCc2cccs2)n1`: 793 nM; `N#Cc1cccc(Nc2nccc(NCC(O)c3ccccc3C(F)(F)F)n2)c1` (stereo not given): 827 nM.
Turning to `O=C1C(c2ccccc2)=C(Nc2ccc(Cl)cc2)c2ccccc21`, the XC50 came to 613 nM.
In the case of `CCOC(=O)c1ccc(NC(=O)Nc2cccc(-c3cccc(-c4nc5cccc(C)c5[nH]4)c3)c2)cc1`, the XC50 came out at 106 nM.
Under `Cc1cc(NCCc2ccccc2)nc(NC(=N)Nc2cccc([N+](=O)[O-])c2)n1` stands 140 nM.
Under `O=C(Nc1ccc(CN2CCCCC2)cc1)c1ccc(COc2ccc([N+](=O)[O-])cc2)o1` stands 996 nM; under `CCc1cc(C(=O)c2cccc(C)c2)c(NC(=O)CN2CCN(C(=O)c3ccco3)CC2)s1`, 451 nM; under `COCCNCc1cccc(-c2ccc(CN(C(=O)NC3CCCCC3)C3CCN(Cc4ccccc4)CC3)cc2)c1`, 759 nM.
Compound `CN1CCC(NCc2ccc(-c3cccc(S(=O)(=O)NCCc4ccccn4)c3)cc2)CC1` showed an XC50 of 993 nM.
Turning to `COCC(=O)N(Cc1ccccc1-c1ccc(CNCCc2ccccc2)cc1)C1CCN(Cc2ccccc2)CC1`, the XC50 is 895 nM.
In turn, `C=CCC1OC(=O)c2cc(OC)cc(OC)c21` (stereo not given) yielded an XC50 of 343 nM.
`Cc1cc(Cl)c(S(=O)(=O)NC2CCCC2)cc1OCC(=O)NC1CCCCC1` yielded an XC50 of 385 nM.
`CCc1nc(N)nc(N)c1CCCOc1ccccc1Cl` came in with an XC50 of 105 nM.
The compound `O=C(c1ccco1)N1CCN(c2ccc([N+](=O)[O-])c(NC3CC3)c2)CC1` registered an XC50 of 747 nM.
With `C[C@H](Cc1ccc(OCCCCCOc2ccc(C[C@@H](C)NC[C@H](O)c3cccc(Cl)c3)cc2)cc1)NC[C@H](O)c1cccc(Cl)c1`, the XC50 was found to be 190 nM.
Take `COc1ccc(CCNCCCCCCNCCc2ccc(-c3ccccc3)cc2)cc1OC`: the XC50 turned out to be 958 nM.
`Clc1nc2ccccn2c1C=Cc1ccc2ccccc2n1` gave an XC50 of 267 nM.
Turning to `Brc1ccc(Nc2nc(NCc3ccccc3)c3ccccc3n2)cc1`, the XC50 turned out to be 337 nM.
The compound `CCN(CC)CCOc1cc2c(cc1Br)-c1cc(Br)c(OCCN(CC)CC)cc1C2=NO` had an XC50 of 1090 nM.
Under `FC(F)(F)c1ccc2[nH]c(-c3ccc(-c4cccc(CNCCN5CCNCC5)c4)s3)nc2c1` stands 1040 nM; under `CS(=O)(=O)c1ccccc1CNC(=O)c1cccc(-c2ccc(-c3nc4cc(C(F)(F)F)ccc4[nH]3)cc2)c1`, 809 nM.
In the case of `Oc1ccc2[nH]c(-c3ccc(OC(F)(F)F)cc3)nc2c1CNC1CCCC1`, the XC50 was determined as 1750 nM.
In turn, `CCCCc1ccc(Cc2cnc3nc(N)nc(N)c3c2C)cc1` gave an XC50 of 235 nM.
Next, `Cc1cnc(NCC2CCCCC2)nc1NCC(=O)Nc1ccccc1`: 714 nM; `COc1ccc(CN(C)CCCc2ccc(NC(=O)Cc3ccc4nc(-c5ccccc5)ccc4c3)cc2)cc1OC`: 534 nM; `Cc1cccc2nc(-c3ccc(-c4cccc(CNCCCNS(C)(=O)=O)c4)cc3)[nH]c12`: 1220 nM.
Take `O=C1CCCN1CCCNCc1ccc(-c2ccc(-c3nc4cc(F)ccc4[nH]3)s2)cc1`: the XC50 came out at 896 nM.
`COc1ccc(CCN2CCC(CN(C)Cc3cnn(-c4ccccc4)c3)CC2)cc1` displayed an XC50 of 1160 nM.
With `COc1cc(Br)ccc1N1CCN(CCCCNC(=O)c2ccc(NC(=O)c3ccc(Cl)cc3)cc2)CC1`, the XC50 was 758 nM.
`CN(C)CCN(C)Cc1ccc(-c2ccc(NC(=O)c3cccc(Cl)c3)cc2)cc1`: the XC50 was 1140 nM.
For the compound `CO/C(=C\C=C\c1cc2cc(Cl)c(Cl)cc2[nH]1)C(=O)NCC(C)(C)CN(C)C`, the XC50 turned out to be 1160 nM.
`O=C(/C=C/c1ccc(Cl)c(Cl)c1)NCCCCCN1CCCC(C(=O)Nc2cccc(Cl)c2)C1` (stereo not given) gave an XC50 of 895 nM.
In turn, `Cc1nc(NC(=N)N)nc2ccc(C(C)(C)C)cc12` had an XC50 of 747 nM.
Regarding `O=C(Nc1cc(F)cc(F)c1)N1CCOC(CCN2CCC3(CCc4ccccc43)CC2)(c2ccc(Cl)c(Cl)c2)C1` (stereo not given), the XC50 came out at 275 nM.
In the case of `CCCn1c(O)nnc1SCC(=O)Nc1cc(C(F)(F)F)ccc1Cl`, the XC50 was 222 nM.
`NCC1CCCN1Cc1ccc(-c2cccc(-c3nc4cc(C(F)(F)F)ccc4[nH]3)c2)cc1` (stereo not given) gave an XC50 of 833 nM.
As to `Cc1csc(-c2nc(NCc3cccnc3)ncc2-c2ccsc2)n1`, the XC50 came to 1190 nM.
As for `Cc1cccc(-c2ccc(CNC3CCN(CC4Cn5c(=O)ccc6ccc(F)c4c65)CC3)cn2)c1` (stereo not given), the XC50 came to 1530 nM.
As for `COc1cccc(C(=O)Nc2ccc(Nc3nc(C)cc(N(C)C)n3)cc2)c1OC`, the XC50 was determined as 1020 nM.
Turning to `CCCNc1ccc(-c2cc(C(N)=O)c3[nH]cc(C4CCN(S(=O)(=O)CC)CC4)c3c2)cn1`, the XC50 worked out at 817 nM.
Next, `COc1cccc(C=Cc2nc(=O)c3ccccc3o2)c1OC`: 64.4 nM.
`Cc1cccc2nc(-c3ccc(-c4cccc(NC(=O)c5cccc(C(N)=O)c5)c4)cc3)[nH]c12`: the XC50 worked out at 1130 nM.
`Cc1ccc(C(=O)NCC2CCN(c3ccc(C(F)(F)F)cc3NC(=O)c3ccco3)CC2)cn1`: the XC50 stood at 782 nM.
Under `CCCCCCNc1c2ccccc2nc2ccccc12` stands 949 nM; under `CC(C)(C)c1ccc(CNC(=O)c2cc(CNC3CCNCC3)ccc2O)cc1`, 710 nM.
Under `Fc1ccc(Nc2ccnc3cc(-c4ccc(CN5CCOCC5)o4)ccc23)c(Cl)c1` stands 756 nM; under `O=C(Nc1ccc(C(F)(F)F)cc1)c1ccc(S(=O)(=O)NC2CCN(CC3CCCCC3)CC2)cc1`, 731 nM.
In the case of `CC(C)CCN(Cc1cncn1Cc1cccc(C(F)(F)F)c1)C(=O)c1ccccc1C#N`, the XC50 was 614 nM.
`CCOCCCn1c(=N)c(C(=O)NC(C)c2ccccc2)cc2c(=O)n3cccc(C)c3nc21` (stereo not given) returned an XC50 of 1200 nM.
Regarding `O=C(NCCCCN1CCC(c2ccc3c(c2OCCO)CCCC3)CC1)c1ccc(-c2ccc(C(F)(F)F)cc2)cc1`, the XC50 amounted to 855 nM.
Next, `N#Cc1ccc2c(c1)CCN(CCC1CCC(NC(=O)c3cc4cccc([N+](=O)[O-])c4[nH]3)CC1)C2` (stereo not given): 684 nM; `CC(Cc1ccc(OCc2ccccc2)c(Cl)c1)NCC(O)c1cccc(C(F)(F)F)c1` (stereo not given): 940 nM.
Consider `CC(C)(C)c1ccc(C(=O)Nc2ccc3nc4c(c(N)c3c2)CCCC4)cc1`, for which the XC50 was found to be 175 nM.
Next, `COc1ccc(OC)c(-c2cccc(-c3cccc(NC(=O)c4ccc([N+](=O)[O-])o4)c3)n2)c1`: 371 nM; `COc1cc2nc(NCCc3ccccc3)nc(NCCc3ccccc3)c2cc1OC`: 282 nM; `Oc1ccc(CCNc2nc(NCCCOc3cccc(CN4CCCCC4)c3Cl)nc(N3CCNCC3)n2)cc1`: 1370 nM.
For the compound `O=C(N[C@@H](Cc1ccccc1)C(=O)O)c1cc(-c2ccc(F)cc2)no1.O=C(N[C@@H](Cc1ccccc1)C(=O)O)c1conc1-c1ccc(F)cc1`, the XC50 was determined as 802 nM.
Under `CC(C)(C)c1ccc(CN2CCC(CNC(=O)c3cc(-c4ccccc4Cl)cs3)C2)cc1` (stereo not given) stands 856 nM; under `CN(C)c1cccc2c1nc(-c1ccc3c(c1)CCO3)n2CCNCc1ccccc1`, 734 nM; under `N#Cc1cccc(CN2CCCN(Cc3cccc(C(=O)Nc4ccc(Cl)cc4)c3)CC2)c1`, 1180 nM.
Next, `COc1ccc(C2CC(=O)C3=C(C2)NC(C)=C(C(=O)OC(C)C)C3c2c(F)cccc2Cl)cc1OC` (stereo not given): 824 nM.
`Cc1cc(N2CCN(CC3CCN(C)CC3)CC2)nc(Nc2ccc(Br)cc2)n1` came in with an XC50 of 442 nM.
Regarding `CC(=O)Nc1ccc(CN2CCC(NC(=O)c3ccc(-c4cccc(Cl)c4)s3)CC2)cc1`, the XC50 was 792 nM.
`N#Cc1ccc(N2CCN(Cc3cccc(-c4cccc(-c5nc6cc(F)ccc6[nH]5)c4)c3)CC2)nc1` showed an XC50 of 959 nM.
In turn, `Cc1ccc(C)c(Cn2c(N3CCC(C(=O)NCc4cccs4)CC3)nc3ccccc32)c1` returned an XC50 of 938 nM.
`O=C(Nc1ccc(-c2ccc(CN3CCNCC3)cc2)cc1)c1cccc(Cl)c1` gave an XC50 of 894 nM.
Under `CCCCC/C=C/C(=O)NC1CCC(CN2CCC(c3c[nH]c4ccccc34)CC2)CC1` (stereo not given) stands 982 nM; under `CCOC(=O)c1ccc(OCc2ccc(-c3ccccc3)cc2)cc1`, 813 nM; under `CN(C)CCCOc1ccc(-c2csc(NC(=N)NCc3ccccc3)n2)cc1`, 278 nM.
In the case of `CCN(CCCN1CCCCC1)c1cc(C)nc(Nc2ccc(C)cc2Br)n1`, the XC50 is 172 nM.
In turn, `COc1ccc2nccc([C@@H](O)CN3CCC(NC[C@H](Cc4ccccc4)NC(=O)OC(C)(C)C)CC3)c2c1` registered an XC50 of 228 nM.
For `O=C(Nc1ccc(OC2CCN(Cc3ccsc3)CC2)c(Cl)c1)c1cccs1`, the XC50 came to 600 nM.
Consider `O=C(/C=C/c1ccc(F)cc1)NC1CCC(CCN2CCCN(c3ccc(C(F)(F)F)cn3)CC2)CC1` (stereo not given), for which the XC50 turned out to be 1080 nM.
In turn, `COc1ccc2[nH]c(C(=O)Nc3ccc4[nH]c(-c5ccccc5)nc4c3)cc2c1` returned an XC50 of 834 nM.
`COc1ccccc1N1CCN(CCCCNC(=O)c2ccc(NC(=O)c3ccc(C(F)(F)F)cc3)cc2)CC1` gave an XC50 of 304 nM.
The compound `COC(=O)C(NC(=O)NC1CCN(c2ccnc(Nc3ccc(F)cc3)n2)C1)c1ccccc1` (stereo not given) yielded an XC50 of 1050 nM.
